Experiments:
Rattus norvegicus [1] = species: Rattus norvegicus; assay: Gastrointestinal tolerability was evaluated in rats and amount blood loss was reported.; assay type: functional
Rattus norvegicus [2] = assay: Antiinflammatory activity was evaluated in an adjuvant arthritis (subchronic inflammation) test, after administering compound orally in rats.; assay type: functional; details: po
Rattus norvegicus [3] = assay: Antiinflammatory activity was evaluated in an carrageenan edema (acute inflammation) test, after administering compound orally in rats.; assay type: functional; details: po
Rattus norvegicus [4] = species: Rattus norvegicus; assay: Gastrointestinal tolerability was evaluated under chronic conditions, in rats. The ulcerogenic dose from a 4-week toxicity study, was reported.; assay type: functional
Rattus norvegicus [5] = species: Rattus norvegicus; assay: Gastrointestinal tolerability was evaluated under chronic conditions, in rats. The ulcerogenic dose was reported.; assay type: functional
Rattus norvegicus [6] = species: Rattus norvegicus; assay: Gastrointestinal tolerability was evaluated under acute conditions, in rats. The ulcerogenic dose was reported.; assay type: functional
Rattus norvegicus [7] = species: Rattus norvegicus; assay: Gastrointestinal tolerability was evaluated in rats and amount blood loss was reported; assay type: functional
Rattus norvegicus [8] = assay: Antiinflammatory activity was evaluated in an adjuvant arthritis (subchronic inflammation) test after administering compound orally in rats; assay type: functional; details: po
Rattus norvegicus [9] = assay: Antiinflammatory activity was evaluated in an carrageenan edema (acute inflammation) test, after administering compound orally in rats; 15-30; assay type: functional; details: po
Rattus norvegicus [10] = species: Rattus norvegicus; assay: Gastrointestinal tolerability was evaluated under acute conditions, in rats. The ulcerogenic dose was reported; assay type: functional
Rattus norvegicus [11] = species: Rattus norvegicus; assay: Gastrointestinal tolerability was evaluated under chronic conditions, in rats. The ulcerogenic dose was reported; assay type: functional
Rattus norvegicus [12] = species: Rattus norvegicus; assay: Gastrointestinal tolerability was evaluated in rats and compound dose that causes lethality was reported; assay type: toxicity, organism-based; details: in vivo
Rattus norvegicus [13] = assay: Antiinflammatory activity was evaluated in an adjuvant arthritis (subchronic inflammation) test after administering compound orally in rats.; assay type: functional; details: po
Rattus norvegicus [14] = assay: Antiinflammatory activity was evaluated in an carrageenan edema (acute inflammation) test, after administering compound orally in rats; assay type: functional; details: po
Rattus norvegicus [15] = assay: Antiinflammatory activity was evaluated in an carrageenan edema (acute inflammation) test, after administering compound orally in rats; 50-100; assay type: functional; details: po
Rattus norvegicus [16] = species: Rattus norvegicus; assay: Gastrointestinal tolerability was evaluated under chronic conditions, in rats. The ulcerogenic dose was reported; 30-100; assay type: functional
Rattus norvegicus [17] = species: Rattus norvegicus; assay: Gastrointestinal tolerability was evaluated in rats and compound dose that causes lethality was reported.; assay type: toxicity, organism-based; details: in vivo

Row | Structure (SMILES) | Blood loss (Rattus norvegicus [1]) [mg/kg] | ED40 (Rattus norvegicus [2]) [mg/kg] | ED50 (Rattus norvegicus [3]) [mg/kg] | UD (Rattus norvegicus [6]) [mg/kg] | Blood loss (Rattus norvegicus [7]) [mg/kg] | also measured
1 | O=C(O)C1CCc2cc(CC3CCCC3)c(Cl)cc21 (configuration not stated) | >100 | 30 | 30 | >400 |  | UD (Rattus norvegicus [4]): >400 mg/kg; UD (Rattus norvegicus [5]): >100 mg/kg
2 | CC(C(=O)O)c1ccc2oc(-c3ccc(Cl)cc3)nc2c1 (configuration not stated) [BENOXAPROFEN] |  |  |  |  | <50 | ED40 (Rattus norvegicus [8]): 10 mg/kg; ED50 (Rattus norvegicus [9]): 15 mg/kg; UD (Rattus norvegicus [10]): >200 mg/kg; UD (Rattus norvegicus [11]): <30 mg/kg; Lethality (Rattus norvegicus [12]): < 50 mg/kg
3 | O=C(O)C1CCc2cc(C3CCCCC3)c(Cl)cc21 (configuration not stated) [CLIDANAC] |  | 4 | 4 | <3 |  | 
4 | O=C(O)Cc1ccccc1Nc1c(Cl)cccc1Cl [DICLOFENAC] |  |  |  | 20 | 20 | ED40 (Rattus norvegicus [13]): 2 mg/kg; ED50 (Rattus norvegicus [14]): 2 mg/kg; UD (Rattus norvegicus [11]): 20 mg/kg
5 | CC(C)Cc1ccc(C(C)C(=O)O)cc1 (configuration not stated) [IBUPROFEN] |  |  |  |  | 200 | ED40 (Rattus norvegicus [8]): > 150 mg/kg; ED50 (Rattus norvegicus [15]): 50 mg/kg; UD (Rattus norvegicus [10]): 30 mg/kg; UD (Rattus norvegicus [16]): 30 mg/kg; Lethality (Rattus norvegicus [12]): 400 mg/kg
6 | COc1ccc2c(c1)c(CC(=O)O)c(C)n2C(=O)c1ccc(Cl)cc1 [INDOMETHACIN] | 4 | 2 | 4 | 4 |  | UD (Rattus norvegicus [5]): 4 mg/kg; Lethality (Rattus norvegicus [17]): 8 mg/kg
7 | COc1ccc2cc([C@H](C)C(=O)O)ccc2c1 [NAPROXEN] | >30 | 10 | 15 | 5 |  | Lethality (Rattus norvegicus [17]): > 30 mg/kg
